According to ChEMBL document CHEMBL3638960, “4,5-dihydro-oxazol-2yl derivatives” (2014):
pKi: −log10 of the molar value.

Molecular target: Trace amine-associated receptor 1 (Mus musculus, UniProt Q923Y8)
Test: Binding assay: Binding assay was performed at 4 C. in a final volume of 1 ml, and with an incubation time of 30 min. The radioligand [3H]-rac-2-(1,2,3,4-tetrahydro-1-naphthyl)-2-imidazoline was used at a concentration equal to the calculated Kd value of 60 nM to give a bound at around 0.1% of the total added radioligand concentration, and a specific binding which represented approximately 70-80% of the total binding. Non-specific binding was defined as the amount of [3H]-rac-2-(1,2,3,4-tetrahydro-1-naphthyl)-2-imidazoline bound in the presence of the appropriate unlabelled ligand (10 μM). Competing ligands were tested in a wide range of concentrations ([…]).

Sequence of Trace amine-associated receptor 1 (Q923Y8 whole entry): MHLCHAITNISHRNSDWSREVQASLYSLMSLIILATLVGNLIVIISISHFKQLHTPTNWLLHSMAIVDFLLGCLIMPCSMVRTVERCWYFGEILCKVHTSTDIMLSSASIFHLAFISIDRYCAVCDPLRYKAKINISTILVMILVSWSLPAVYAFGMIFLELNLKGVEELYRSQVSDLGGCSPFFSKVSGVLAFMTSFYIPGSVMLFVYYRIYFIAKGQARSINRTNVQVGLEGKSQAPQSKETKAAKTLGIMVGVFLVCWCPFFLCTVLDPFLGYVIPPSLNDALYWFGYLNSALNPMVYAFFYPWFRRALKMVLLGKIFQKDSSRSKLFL

- pKi: 9.30
SMILES: NC1=N[C@@H](CCC2(c3ccccc3)CC2)CO1
